Measurements from patent publication US9611289B2, “Farnesoid X receptor modulators” (Intercept Pharmaceuticals, Inc., priority 2013, dated 2017).
Values after ≈ are worked out from the molar mass of the structure shown.

Tests used:
PR = PR (Homo sapiens, UniProt P06401); test: AlphaScreen nuclear receptor activation; type: biochemical
Surface tension at CMC = type: physicochemical; conditions: […] NaCl water solution
[1] = Critical micellar concentration; type: physicochemical; conditions: […] NaCl water solution
[2] = 1-octanol-water partition coefficient (LogPA-); conditions: ionized species
HepG2 cells [3] = conditions: HepG2 cells
HepG2 cells [4] = test: cells; conditions: Homo sapiens, HepG2, read-out: Membrane integrity EC50 (μM) (LDH measure)

Chain of PR (P06401 whole entry): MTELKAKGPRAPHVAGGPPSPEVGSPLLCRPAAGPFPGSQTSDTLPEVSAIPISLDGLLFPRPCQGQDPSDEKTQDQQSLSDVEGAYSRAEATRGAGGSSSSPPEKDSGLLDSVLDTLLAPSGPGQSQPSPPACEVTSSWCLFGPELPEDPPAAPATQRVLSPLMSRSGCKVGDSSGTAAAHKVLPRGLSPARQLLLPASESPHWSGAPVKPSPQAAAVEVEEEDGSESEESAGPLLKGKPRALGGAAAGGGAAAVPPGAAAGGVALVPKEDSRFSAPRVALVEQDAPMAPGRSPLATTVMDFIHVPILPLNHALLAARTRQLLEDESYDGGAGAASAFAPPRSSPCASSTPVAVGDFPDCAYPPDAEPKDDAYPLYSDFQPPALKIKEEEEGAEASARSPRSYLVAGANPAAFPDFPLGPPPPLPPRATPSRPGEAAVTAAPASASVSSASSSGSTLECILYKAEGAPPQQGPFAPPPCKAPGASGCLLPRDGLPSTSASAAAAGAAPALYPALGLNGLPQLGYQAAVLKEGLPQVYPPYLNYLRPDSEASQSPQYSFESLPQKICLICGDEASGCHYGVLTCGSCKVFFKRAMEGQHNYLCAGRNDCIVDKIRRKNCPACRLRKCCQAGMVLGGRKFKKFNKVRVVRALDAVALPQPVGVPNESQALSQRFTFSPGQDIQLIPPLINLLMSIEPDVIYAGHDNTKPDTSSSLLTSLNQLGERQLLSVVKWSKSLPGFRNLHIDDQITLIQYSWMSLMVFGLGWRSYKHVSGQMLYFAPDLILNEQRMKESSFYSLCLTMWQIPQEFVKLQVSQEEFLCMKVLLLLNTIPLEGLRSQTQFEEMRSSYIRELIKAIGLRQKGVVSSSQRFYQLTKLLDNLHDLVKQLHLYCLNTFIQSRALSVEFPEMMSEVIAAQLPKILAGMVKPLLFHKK

| Compound | CMC(b) (mM) Critical Micellar Concentration [1] | LogPA−(d) 1-octanol-water partition coefficient [2] | STCMC(c) (Dyne/cm) Surface Tension at CMC (Surface tension at CMC) | solubility (Water solubility) | also measured |
| --- | --- | --- | --- | --- | --- |
| C[C@]12C[C@H](O)[C@H]3[C@@H](CCC4=CC(=O)CC[C@@]43C)[C@@H]1CC[C@@H]2C(=O)CO [Corticosterone] |  |  |  |  | EC50 (PR): 0.05 µM |
| CC[C@H]1[C@@H](O)C2C3CC[C@H]([C@H](C)CCC(=O)O)[C@@]3(C)C[C@@H](O)C2[C@@]2(C)CC[C@@H](O)C[C@@H]12 (stereo partly drawn) [Compound 101] |  |  |  |  | Membrane integrity EC50 (μM) (LDH measure) (HepG2 cells [3]): No toxicity; living cells (HepG2 cells [3]; LDH measure): (100% living cells) |
| CC[C@H]1[C@@H](O)C2C3CC[C@H]([C@H](C)C[C@H](C)C(=O)O)[C@@]3(C)CCC2[C@@]2(C)CC[C@@H](O)C[C@@H]12 (stereo partly drawn) [Compound D, 6α-ethyl-23(R)-methyl chenodeoxycholic acid] |  | 2.9 |  | 15 µM (≈ 6.52 µg/mL) |  |
| CC[C@H]1[C@@H](O)C2C3C[C@H](O)[C@H]([C@H](C)CCC(=O)O)[C@@]3(C)CCC2[C@@]2(C)CC[C@@H](O)C[C@@H]12 (stereo partly drawn) [Compound E] | 5.9 mM | 1.6 | 52.4 Dyne/cm | 120 µM (≈ 52.4 µg/mL) |  |
| C[C@H](CCC(=O)O)[C@H]1CC[C@H]2[C@@H]3CC[C@@H]4C[C@H](O)CC[C@]4(C)[C@H]3CC[C@]12C [LCA, lithocholic acid] |  |  |  |  | EC50 (HepG2 cells [4]): 75 ± 5 µM |
| CC[C@H]1[C@@H](O)C2C3CCC(C(C)CC(C)C(=O)O)[C@@]3(C)[C@@H](O)CC2[C@@]2(C)CC[C@@H](O)C[C@@H]12 (stereo in doubt) [Compound C, 6α-ethyl-23(S)-methyl-3α,7α,12α trihydroxy-5β-cholan-24-oic acid] | 2 mM | 1.4 | 50.1 Dyne/cm |  |  |

The next lines start with results.

| CMC(b) (mM) Critical Micellar Concentration [1] | LogPA−(d) 1-octanol-water partition coefficient [2] | Compound | STCMC(c) (Dyne/cm) Surface Tension at CMC (Surface tension at CMC) | solubility (Water solubility) | also measured |
| --- | --- | --- | --- | --- | --- |
| 3.2 mM | 2.2 | C[C@H](CCC(=O)O)[C@H]1CC[C@H]2[C@@H]3[C@H](O)C[C@@H]4C[C@H](O)CC[C@]4(C)[C@H]3CC[C@]12C [CDCA, chenodeoxycholic acid] | 45.5 Dyne/cm |  |  |
| 6 to 10 mM | 2.2 | C[C@H](CCC(=O)O)[C@H]1CC[C@H]2[C@@H]3[C@@H](O)C[C@@H]4C[C@H](O)CC[C@]4(C)[C@H]3CC[C@]12C [UDCA, ursodeoxycholic acid] | 50.5 Dyne/cm | 7 to 7.5 µM (≈ 2.75 to 2.94 µg/mL) |  |
| 3.0 mM | 0.9 | C[C@H](CCC(=O)NCCS(=O)(=O)O)[C@H]1CC[C@H]2[C@@H]3[C@H](O)C[C@@H]4C[C@H](O)CC[C@]4(C)[C@H]3CC[C@]12C [TCDCA, taurochenodeoxycholic acid] |  |  |  |
| 2.2 mM | 1.1 | C[C@H](CCC(=O)NCCS(=O)(=O)O)[C@H]1CC[C@H]2[C@@H]3[C@@H](O)C[C@@H]4C[C@H](O)CC[C@]4(C)[C@H]3CC[C@]12C [TUDCA, tauroursodeoxycholic acid] |  |  |  |
